Experimental data taken from ChEMBL document CHEMBL1147725, “Identification and biological characterization of 6-aryl-7-isopropylquinazolinones as novel TRPV1 antagonists that are effective in models of chronic pain” (J Med Chem, 2006).
pIC50: −log10 of the molar value. In brackets after ≈: the same amount, converted by molar mass.

Experiments:
[1] = biological target: T1, Transient receptor potential cation channel subfamily V member 1 (Homo sapiens, UniProt Q8NER1); test: Inhibition of calcium influx evoked by capsaicin in human TRPV1 expressing cells by fluorescence assay; format: functional
T1 sequence (Q8NER1 whole entry): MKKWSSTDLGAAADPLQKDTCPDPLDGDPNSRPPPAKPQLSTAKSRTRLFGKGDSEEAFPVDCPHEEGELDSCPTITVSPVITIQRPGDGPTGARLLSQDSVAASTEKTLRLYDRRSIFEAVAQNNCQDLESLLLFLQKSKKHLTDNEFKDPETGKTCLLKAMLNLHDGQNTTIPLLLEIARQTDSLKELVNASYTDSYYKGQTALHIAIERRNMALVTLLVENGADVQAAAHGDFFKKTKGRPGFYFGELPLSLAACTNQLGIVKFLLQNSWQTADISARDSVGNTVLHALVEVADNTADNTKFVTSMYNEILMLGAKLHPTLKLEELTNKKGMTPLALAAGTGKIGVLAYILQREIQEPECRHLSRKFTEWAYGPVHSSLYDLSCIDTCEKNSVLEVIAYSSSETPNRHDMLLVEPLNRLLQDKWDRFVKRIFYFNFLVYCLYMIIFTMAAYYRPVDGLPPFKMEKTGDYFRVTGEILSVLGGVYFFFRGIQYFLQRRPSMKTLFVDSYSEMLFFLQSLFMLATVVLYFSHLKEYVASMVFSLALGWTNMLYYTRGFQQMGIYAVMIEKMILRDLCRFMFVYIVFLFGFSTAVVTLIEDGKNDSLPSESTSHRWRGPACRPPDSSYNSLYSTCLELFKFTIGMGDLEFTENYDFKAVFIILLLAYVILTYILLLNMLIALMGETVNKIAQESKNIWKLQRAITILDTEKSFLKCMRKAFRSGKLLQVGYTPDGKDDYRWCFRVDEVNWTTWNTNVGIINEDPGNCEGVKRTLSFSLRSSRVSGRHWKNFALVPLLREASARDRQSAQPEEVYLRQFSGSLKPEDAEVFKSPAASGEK

[2] = Half life in rat at 3 mg/kg, po; format: ADME, organism-based; design: dose 3 mg/kg, route oral; conditions: Wistar Han, in vivo
[3] = biological target: T1, Transient receptor potential cation channel subfamily V member 1; test: Inhibition of low pH activation of human TRPV1; format: functional
[4] = Aqueous solubility at pH 6.8 and 25 degC; format: physicochemical; conditions: aqueous medium

| SMILES | pIC50 [1] | half-life [2] | pIC50 [3] | solubility [4] |
| --- | --- | --- | --- | --- |
| Cc1nc(O)c2cc(-c3ccc(Cl)c(OCC(=O)O)c3)c(C(C)C)cc2n1 | < 6.00 |  |  |  |
| CC(C)(C)c1nc2[nH]c(=S)[nH]c(=O)c2cc1-c1ccc(Cl)cc1 |  | 7.5 h | 7.74 | 0.15 µg/mL (≈ 0.434 µM) |
| COc1cc(-c2cc3c(=O)[nH]c(C)nc3cc2C(C)C)ccc1Cl | 7.85 |  |  |  |
